Results published in patent US9834542B2, “LXR modulators” (BRISTOL-MYERS SQUIBB COMPANY, priority 2013, dated 2017).

Molecular target: T1, LXRβ (Homo sapiens, UniProt P55055)
T1 construct: Co-transfection expression plasmids, comprising full-length LXRα (pCMX-h LXRα[…] or LXRβ (pCMX-hLXRβ)); expressed in transfected cells; host or cells: CV-1 African Green Monkey Kidney Cells
T1 sequence (P55055 1-460): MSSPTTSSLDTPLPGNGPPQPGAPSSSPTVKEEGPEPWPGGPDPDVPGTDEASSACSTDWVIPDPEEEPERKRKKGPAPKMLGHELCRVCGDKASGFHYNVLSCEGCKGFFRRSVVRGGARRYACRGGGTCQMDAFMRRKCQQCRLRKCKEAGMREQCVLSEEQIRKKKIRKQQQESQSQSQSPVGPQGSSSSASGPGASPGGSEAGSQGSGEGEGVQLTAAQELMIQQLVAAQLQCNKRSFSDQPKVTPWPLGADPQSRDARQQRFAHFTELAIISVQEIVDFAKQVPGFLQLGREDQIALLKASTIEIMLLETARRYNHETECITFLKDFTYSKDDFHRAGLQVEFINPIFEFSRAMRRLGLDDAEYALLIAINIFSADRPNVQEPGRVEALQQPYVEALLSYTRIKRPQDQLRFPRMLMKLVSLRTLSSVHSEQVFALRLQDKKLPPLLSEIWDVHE
T1 sequence (P19793 1-462 partner): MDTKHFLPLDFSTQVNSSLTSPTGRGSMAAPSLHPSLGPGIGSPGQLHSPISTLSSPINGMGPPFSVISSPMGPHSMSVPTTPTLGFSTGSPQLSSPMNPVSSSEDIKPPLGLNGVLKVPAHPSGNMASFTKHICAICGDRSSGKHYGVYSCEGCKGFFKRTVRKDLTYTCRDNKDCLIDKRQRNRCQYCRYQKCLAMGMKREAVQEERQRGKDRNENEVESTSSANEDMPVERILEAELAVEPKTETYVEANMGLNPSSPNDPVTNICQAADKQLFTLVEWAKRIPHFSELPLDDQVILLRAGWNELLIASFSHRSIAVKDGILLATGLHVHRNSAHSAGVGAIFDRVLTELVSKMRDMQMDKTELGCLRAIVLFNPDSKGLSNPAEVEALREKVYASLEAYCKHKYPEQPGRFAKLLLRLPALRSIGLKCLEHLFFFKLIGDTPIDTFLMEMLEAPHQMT
Experiment: Co-transfection assay (LXRE luciferase reporter), LXRβ
Assay type: cell-based
Details: for EC50: CV-1 cells transfected with pCMX-hLXRβ and LXREx1-Tk-Luciferase, 20 hours incubation; for Emax: LXRβ co-transfection, relative to high control 1-(2,4-difluorobenzyl)-2-oxo-6-(4-phenoxyphenyl)-4-(trifluoromethyl)-1,2-dihydropyridine-3-carbonitrile, read-out: % Efficacy
Source text: To measure the ability of compounds to activate or inhibit the transcriptional activity of LXR in a cell based assay, the co-transfection assay was used. It has been shown that LXR functions as a heterodimer with RXR. For the co-transfection assay, expression plasmids for LXRα and LXRβ are introduced separately via transient transfection into mammalian cells along with a luciferase reporter plasmid that contains one copy of a DNA sequence that is bound by LXR-RXR heterodimers (LXRE; Willy, P. et. al. 1995). LXRs heterodimerize with the endogenous RXR. Treatment of transfected cells with an LXR agonist increases the transcriptional activity of LXR, which is measured by an increase in luciferase activity.
CV-1 African Green Monkey Kidney Cells
Co-transfection expression plasmids, comprising full-length LXRα (pCMX-h LXRα[…] or LXRβ (pCMX-hLXRβ), reporter plasmid (LXREx1-Tk-Luciferase), and control (pCMX-Galactosidase expression vector) (Willey et al. Genes & Development 9 1033-1045 (1995)).
CV-1 cells were prepared 24 hours prior to the experiment by plating them into T-175 flasks or 500 cm^2 dishes in order to achieve 70-80% confluency on the day of the transfection. The number of cells to be transfected was determined by the number of plates to be screened. Each well of a 384 well plate requires 1.5×10^4 cells. DNA Transfection Reagent was prepared by mixing the required plasmid DNAs with a cationic lipid transfection reagent Transit 2020 (Mirus Bio) for CV1 by following the instructions provided with the reagents. Optimal DNA amounts were determined empirically per cell line and size of vessel to be transfected. For each T175 cm^2 flask a total of 59 ug for CV1 of DNA, 133 uL Transit2020 and 4.5 mL DMEM for CV1 was mixed and added. Cells were then incubated at least 5 hours at 37° C. to prepare screening cells.
Luciferase assay reagent (*Steady-Glo Luciferase Assay System by Promega, CAT#E2550) was prepared by combining before use:
Assay plates were prepared by dispensing 5 μL of compound per well of a 384 well plate to achieve final compound concentration of 10 μM and no more than 0.5% DMSO. Media was removed from the screening cells, the cells trypsinized, harvested cells by centrifugation, counted, and plated at a density of approximately 1.5×10^4 cells in the 384 well assay plate prepared above in a volume of about 95 uL. Assay plates containing both compounds and screening cells (100 μL in total volume) were incubated for 20 hours at 37° C.
After incubation with compounds, media was removed from the cells and luciferase assay reagent (50 μL/well) added. After ˜2 minutes at ambient temperature, the assay plates were read on a luminometer (PE Biosystems Northstar reader with on-board injectors, or Envision(Perkin Elmer) or equivalent).
The LXR/LXRE co-transfection assay can be used to establish the EC50/IC50 values for potency and percent activity or inhibition for efficacy. Efficacy defines the activity of a compound relative to a high control 1-(2,4-difluorobenzyl)-2-oxo-6-(4-phenoxyphenyl)-4-(trifluoromethyl)-1,2-dihydropyridine-3-carbonitrileor a low control (DMSO/vehicle). The dose response curves are generated from a 11 point curve with concentrations differing by ½ LOG units. Each point represents the average of 2 wells of data from duplicate 384 well plate.
The data from this assay is fitted to the following equation, from which the EC50 value may be solved: Y=Bottom+(Top−Bottom)/(1+10^((logEC50-X)*HillSlope)).
The EC50/IC50 is therefore defined as the concentration at which an agonist or antagonist elicits a response that is halfway between the Top (maximum) and Bottom (baseline) values. The EC50/IC50 values represented are the averages of at least 2 and normally 3 independent experiments. […]

| Compound | EC50 [µM] | Emax [%] |
| --- | --- | --- |
| Cc1nc(-c2cc(-c3cccc(S(C)(=O)=O)c3)ccc2-n2cc(C(F)(F)F)nc2C)c(-c2ccc(OC(F)F)cc2)o1 [Example 495, 5-(4-(difluoromethoxy)phenyl)-2-methyl-4-(4-(2-methyl-4-(trifluoromethyl)-1H-imidazol-1-yl)-3′-(methylsulfonyl)biphenyl-3-yl)oxazole] | 0.071 | 108 |
| Cc1nc(C(F)(F)F)cn1-c1ccc(-c2cc(F)c(CO)c(S(C)(=O)=O)c2)cc1-c1nc(CC(C)C)oc1-c1ccc(OC(F)(F)F)cc1 [Example 561, (3-fluoro-3′-(2-isobutyl-5-(4-(trifluoromethoxy)phenyl)oxazol-4-yl)-4′-(2-methyl-4-(trifluoromethyl)-1H-imidazol-1-yl)-5-(methylsulfonyl)-[1,1′-biphenyl]-4-yl)methanol] | 0.013 | 71 |
| CCS(=O)(=O)c1cccc(-c2ccc(-n3cc(C(F)F)nc3C)c(-c3cnnn3Cc3ccc(Cl)cc3)c2)c1 [Example 247, 1-(4-chlorobenzyl)-5-(4-(4-(difluoromethyl)-2-methyl-1H-imidazol-1-yl)-3′-(ethylsulfonyl)-[1,1′-biphenyl]-3-yl)-1H-1,2,3-triazole] | 0.315 | 99 |
| CCC(F)(F)c1cn(-c2ccc(-c3cccc(S(C)(=O)=O)c3)cc2-n2nncc2-c2ccc(OC(F)(F)F)cc2)c(C)n1 [Example 184, 1-{4-[4-(1,1-difluoropropyl)-2-methyl-1H-imidazol-1-yl]-3′-(methylsulfonyl)biphenyl-3-yl}-5-{4-[(trifluoromethyl)oxy]phenyl}-1H-1,2,3-triazole] | 0.337 | 86 |
| Cc1nc(-c2ccc3c(c2)OC(F)(F)O3)c(-c2cc(-c3cc(F)c(CO)c(S(C)(=O)=O)c3)ccc2-n2cc(C(F)(F)F)nc2C)o1 [Example 617, (3′-(4-(2,2-difluorobenzo[d][1,3]dioxol-5-yl)-2-methyloxazol-5-yl)-3-fluoro-4′-(2-methyl-4-(trifluoromethyl)-1H-imidazol-1-yl)-5-(methylsulfonyl)-[1,1′-biphenyl]-4-yl)methanol] | 0.037 | 84 |
| Cc1nc(-c2cc(-c3cc(F)c(CO)c(S(C)(=O)=O)c3)ccc2-n2cc(C(F)(F)F)nc2C)c(-c2ccc(OC(F)(F)C(F)F)cc2)o1 [Example 544, (3-fluoro-4′-(2-methyl-4-(trifluoromethyl)-1H-imidazol-1-yl)-3′-(2-methyl-5-(4-(1,1,2,2-tetrafluoroethoxy)phenyl)oxazol-4-yl)-5-(methylsulfonyl)-[1,1′-biphenyl]-4-yl)methanol] | 0.035 | 41 |
| Cc1nc(C(F)F)cn1-c1ccc(-c2cccc(S(C)(=O)=O)c2)cc1-n1nncc1-c1ccc(Cl)cc1 [Example 162, 5-(4-chlorophenyl)-1-{4-[4-(difluoromethyl)-2-methyl-1H-imidazol-1-yl]-3′-(methylsulfonyl)biphenyl-3-yl}-1H-1,2,3-triazole] | 0.977 | 65 |
| Cc1nc(-c2cc(-c3ccc(C)c(S(C)(=O)=O)c3)ccc2-n2cc(C(F)(F)F)nc2C)c(-c2ccc(OC(F)F)c(F)c2)o1 [Example 435, 5-(4-(difluoromethoxy)-3-fluorophenyl)-2-methyl-4-(4′-methyl-4-(2-methyl-4-(trifluoromethyl)-1H-imidazol-1-yl)-3′-(methylsulfonyl)biphenyl-3-yl)oxazole] | 0.069 | 87 |
| COCc1c(F)cc(-c2cc(F)c(-n3cc(C(F)(F)F)nc3C)c(-n3nncc3-c3ccc(Cl)cc3)c2)cc1S(C)(=O)=O [Example 207, 5-(4-chlorophenyl)-1-{3′,5-difluoro-4′-[(methyloxy)methyl]-5′-(methylsulfonyl)-4-[2-methyl-4-(trifluoromethyl)-1H-imidazol-1-yl]biphenyl-3-yl}-1H-1,2,3-triazole] | 0.176 | 76 |
| Cc1nc(Cl)c(Cl)n1-c1ccc(-c2cccc(S(C)(=O)=O)c2)cc1-n1nncc1-c1ccc(OC(F)(F)F)cc1 [Example 151, 1-[4-(4,5-dichloro-2-methyl-1H-imidazol-1-yl)-3′-(methylsulfonyl)biphenyl-3-yl]-5-{4-[(trifluoromethyl)oxy]phenyl}-1H-1,2,3-triazole] | 0.214 | 148 |
| Cc1nc(-c2cc(-c3cccc(S(C)(=O)=O)c3)ccc2-n2cc(C(F)(F)F)nc2C)c(-c2ccc(N(C)C)cc2)o1 [Example 500, N,N-dimethyl-4-(2-methyl-4-(4-(2-methyl-4-(trifluoromethyl)-1H-imidazol-1-yl)-3′-(methylsulfonyl)biphenyl-3-yl)oxazol-5-yl)aniline] | 0.085 | 96 |
| Cc1nc(-c2cc(-c3cccc(S(C)(=O)=O)c3)ccc2-n2cc(C(F)(F)F)nc2C)c(-c2ccc(OC3CCCCC3)nc2)o1 [Example 408, 5-(6-(cyclohexyloxy)pyridin-3-yl)-2-methyl-4-(4-(2-methyl-4-(trifluoromethyl)-1H-imidazol-1-yl)-3′-(methylsulfonyl)biphenyl-3-yl)oxazole] | 0.332 | 55 |
| Cc1nc(C(F)F)c(Cl)n1-c1ccc(-c2cc(F)c(CO)c(S(C)(=O)=O)c2)cc1-n1nncc1-c1ccc(OC(F)(F)F)cc1 [Example 173, {4′-[5-chloro-4-(difluoromethyl)-2-methyl-1H-imidazol-1-yl]-3-fluoro-5-(methylsulfonyl)-3′-(5-{4-[(trifluoromethyl)oxy]phenyl}-1H-1,2,3-triazol-1-yl)biphenyl-4-yl}methanol] | 0.264 | 148 |
| Cc1ccc(-c2cnnn2-c2cc(-c3cccc(S(C)(=O)=O)c3)ccc2-n2cc(C(F)F)nc2C)cc1 [Example 168, 1-{4-[4-(difluoromethyl)-2-methyl-1H-imidazol-1-yl]-3′-(methylsulfonyl)biphenyl-3-yl}-5-(4-methylphenyl)-1H-1,2,3-triazole] | 0.945 | 81 |
